Reference: US9549555B2, “Macrocyclic picolinamide compounds with fungicidal activity” (DOW AGROSCIENCES LLC, priority 2013, dated 2017)
Read-outs that look alike come from different tables or passages of the source.

Legend:
Format in all cases: in vivo
Rhyncosporium secalis = experiment: Barley scald (RHYNSE), percent disease control; details: 24 h, 1 Day Protectant, read-out: Disease control RHYNSE 1DP
Description: Technical grades of materials were dissolved in acetone, which were then mixed with nine volumes of water containing 110 ppm Triton X-100. The fungicide solutions were applied onto wheat seedlings using an automated booth sprayer to run-off. All sprayed plants were allowed to air dry prior to further handling. All fungicides were evaluated using the aforementioned method for their activity vs. all target diseases. Wheat leaf blotch and brown rust activity were also evaluated using track spray applications, in which case the fungicides were formulated as EC formulations, containing 0.1% Trycol 5941 in the spray solutions. Wheat plants (variety Yuma) were grown from seed in a greenhouse in 50% mineral soil/50% soil-less Metro mix until the first leaf was fully emerged, with 7-10 seedlings per pot. These plants were inoculated with an aqueous spore suspension of Septoria tritici either prior to or after fungicide treatments. After inoculation the plants were kept in 100% relative humidity (one day in a dark dew chamber followed by two to three days in a lighted dew chamber at 20° C.) to permit spores to germinate and infect the leaf. The plants were then transferred to a greenhouse set at 20° C. for disease to develop. When disease symptoms were fully expressed on the 1st leaves of untreated plants, infection levels were assessed on a scale of 0 to 100 percent disease severity. Percent disease control was calculated using the ratio of disease severity on treated plants relative to untreated plants. Evaluation of Fungicidal Activity: Barley Scald (Rhyncosporium secalis; Bayer Code […]) Barley seedlings (variety Harrington) were propagated in soil-less Metro mix, with each pot having 8 to 12 plants, and used in the test when first leaf was fully emerged. Test plants were inoculated by an aqueous spore suspension of Rhyncosporium secalis 24 hr after fungicide treatments. After inoculation the plants were kept in a dew room at 20° C. with 100% relative humidity for 48 hr. The plants were then transferred to a greenhouse set at 20° C. for disease to develop. Fungicide formulation, application and disease assessment on the sprayed leaves followed the procedures as described in the Example A.

[1] = tested on: Mycosphaerella graminicola; Anamorph: Septoria tritici; experiment: Leaf blotch of wheat (SEPTTR), percent disease control on wheat seedlings; details: Zymoseptoria tritici, rate 100 ppm
Description: Evaluation of Fungicidal Activity: Leaf Blotch of Wheat (Mycosphaerella graminicola; Anamorph: Septoria tritici; Bayer Code […]) Technical grades of materials were dissolved in acetone, which were then mixed with nine volumes of water containing 110 ppm Triton X-100. The fungicide solutions were applied onto wheat seedlings using an automated booth sprayer to run-off. All sprayed plants were allowed to air dry prior to further handling. All fungicides were evaluated using the aforementioned method for their activity vs. all target diseases. Wheat leaf blotch and brown rust activity were also evaluated using track spray applications, in which case the fungicides were formulated as EC formulations, containing 0.1% Trycol 5941 in the spray solutions. Wheat plants (variety Yuma) were grown from seed in a greenhouse in 50% mineral soil/50% soil-less Metro mix until the first leaf was fully emerged, with 7-10 seedlings per pot. These plants were inoculated with an aqueous spore suspension of Septoria tritici either prior to or after fungicide treatments. […] When disease symptoms were fully expressed on the 1st leaves of untreated plants, infection levels were assessed on a scale of 0 to 100 percent disease severity. Percent disease control was calculated using the ratio of disease severity on treated plants relative to untreated plants.

Puccinia triticina = experiment: Wheat brown rust (PUCCRT), percent disease control on wheat seedlings; details: rate 100 ppm

Compound | pest or weed control at 100 ppm (Rhyncosporium secalis) | other results
CCCO[C@H]1CCC[C@H](NC(=O)c2nccc(OC)c2OCOC(C)=O)C(=O)O[C@@H](C)[C@@H]1CCC(C)C [Compound 25, ((2-(((3S,7S,8S,9S)-8-isopentyl-9-methyl-2-oxo-7-propoxyoxonan-3-yl)carbamoyl)-4-methoxypyridin-3-yl)oxy)methyl acetate] | > 70% | 
CCCC[C@H]1[C@H](C)OC(=O)[C@@H](NC(=O)c2nccc(OC)c2OCOC(C)=O)CCC[C@@H]1Oc1ccccc1 [Compound 33] | > 70% | 
COc1ccnc(C(=O)N[C@H]2CCC[C@H](Oc3ccccc3)[C@@H](CCC(C)C)[C@H](C)OC2=O)c1OC(C)=O [Compound 36] | > 70% | 
COc1ccnc(C(=O)N[C@H]2CCC[C@H](Oc3ccccc3)[C@@H](CCC(C)C)[C@H](C)OC2=O)c1OCOC(C)=O [Compound 40] | > 70% | 
COc1ccnc(C(=O)N[C@H]2CCC[C@H](OCC3CC3)[C@@H](Cc3ccc(F)cc3)[C@H](C)OC2=O)c1OCOC(C)=O [Compound 61] | > 70% | 
COc1ccnc(C(=O)N[C@H]2CCC[C@H](OCC(C)C)[C@@H](Cc3ccccc3)[C@H](C)OC2=O)c1O [Compound 62] |  | pest or weed control at 100 ppm ([1]; 24 h, 1 Day Protectant, read-out: Disease control SEPTTR 1DP): > 70%; pest or weed control at 100 ppm ([1]; 72 h, 3 Day Curative, read-out: Disease control SEPTTR 3DC): < 70%; pest or weed control at 100 ppm (Puccinia triticina; 24 h, 1 Day Protectant, read-out: Disease control PUCCRT 1DP): > 70%; pest or weed control at 100 ppm (Puccinia triticina; 72 h, 3 Day Curative, read-out: Disease control PUCCRT 3DC): > 70%
CCCO[C@H]1CCC[C@H](NC(=O)c2nccc(OC)c2OC(C)=O)C(=O)O[C@@H](C)[C@@H]1Cc1ccccc1 [Compound 70] | > 70% | 
CCCC[C@H]1[C@H](C)OC(=O)[C@@H](NC(=O)c2nccc(OC)c2OCOC(C)=O)CCC[C@@H]1OCC1CC1 [Compound 73] | > 70% | 
CCCO[C@H]1CCC[C@H](NC(=O)c2nccc(OC)c2OC(C)=O)C(=O)O[C@@H](C)[C@@H]1CCC(C)C [Compound 74, 2-((3S,7S,8S,9S)-8-isopentyl-9-methyl-2-oxo-7-propoxyoxonan-3-yl)carbamoyl)-4-methoxypyridin-3-yl acetate] | > 70% | 
